For 89 molecules, melting point results are on record in the Bradley open melting point set (2014).

One may read the melting point as the temperature, or range, at which the solid turns liquid.

“And” between values parts separate entries of the source, which are not always exact repeats. Equal values may be shown once. Where a name gives a salt, the structure may show the parent alone.

On to `Nc1ccc2ccc3cccc4ccc1c2c34` [1-aminopyrene], for which the melting point is 118 °C.

As to `NNC(=O)c1cc(Cl)cc(Cl)c1` [3,5-dichlorobenzhydrazide], the melting point is 206 °C.

`NC(N)=S` [thiourea] came in with a melting point of 177 °C.

The molecule `N[C@@H](CC(=O)O)C(=O)O` [L-Aspartic Acid] registered a melting point of 230 °C.

`NC1(C(=O)O)CCCC1` [Cycloleucine] came in with a melting point of 330 °C.

Turning to `Nc1ccc(C(=O)O)cc1` [p-aminobenzoic acid], the melting point was 189 °C.

`O=S(=O)(Cl)Cc1cccc(Cl)c1` [3-chlorophenylmethanesulfonyl chloride]: the melting point is 71 °C.

Turning to `N#Cc1ccc2c(c1)N(CCCN1CCC(O)CC1)c1ccccc1S2` [perciyazine], the melting point was 116 °C.

In the case of `NC(=O)[C@H](Cc1ccccc1)NC(=O)OCc1ccccc1` [Nalpha-[(benzyloxy)carbonyl]phenylalaninamide], the melting point is 163 °C.

In turn, `Cl[C@H]1[C@H](Cl)[C@@H](Cl)[C@@H](Cl)[C@H](Cl)[C@H]1Cl` [g-bhc(lindane)] showed a melting point of 112 °C.

In the case of `COc1ccc(N/N=C2/C(=O)N(CO)N=C2C(F)(F)F)cc1`, the melting point was found to be 143 °C.

In turn, `CC1CCC(C(C)C)C(O)C1` (centres undefined) [menthol] yielded a melting point of 45 °C.

`CCc1ccccc1O` [2-ethylphenol] registered a melting point of -18 °C.

In the case of `Cc1cc(/C=C2\S/C(=N\c3ccccc3)N(C3CCCC3)C2=O)c(C)n1-c1ccc(C(F)(F)F)cc1` [OSM-S-54], the melting point was 71.5 °C.

`C/C=C(\C)C(=O)O` [tiglic acid]: the melting point was 64 °C.

With `COc1ccc(C#N)c(Cl)c1OC` [2-chloro-3,4-dimethoxybenzonitrile], the melting point was 102 °C.

In the case of `CC(Oc1c(Cl)cccc1Cl)C1=NCCN1` (centres undefined) [Lofexidine], the melting point was found to be 127 °C.

The molecule `CCOC(=O)C(=O)OCC` [Diethyl oxalate] registered a melting point of -41 °C.

For the molecule `Clc1cccnc1Cl` [2,3-dichloropyridine], the melting point stood at 67 °C.

`CCCC(=O)Nc1ccc(OCC(O)CNC(C)C)c(C(C)=O)c1` (centres undefined) [acebutolol] displayed a melting point of 119 °C.

The molecule `CCNC(=O)C(=O)NCC` [N,N'-diethyloxamide] gave a melting point of 180 °C.

The molecule `CCOC(=O)C(C(=O)OCC)c1ccccc1` [diethyl phenylmalonate] registered a melting point of 16 °C.

`O=C(O)[C@@H]1[C@@H]2CC[C@@H](C2)[C@@H]1C(=O)O` [(1R,2R,3S,4S)-Bicyclo[2.2.1]heptane-2,3-dicarboxylic acid] returned a melting point of 160 °C.

Consider `COC(=O)c1ccc(N)c(N)c1` [methyl 3,4-diaminobenzoate], for which the melting point worked out at 107 °C.

`O=C(c1ccccc1)c1c(F)c(F)c(F)c(F)c1F` [(Pentafluorophenyl)(phenyl)methanone] showed a melting point of 37.5 °C.

Consider `O=C1C(c2ccccc2)=C(c2ccccc2)C(c2ccccc2)=C1c1ccccc1` [2,3,4,5-Tetraphenylcyclopenta-2,4-dien-1-one], for which the melting point turned out to be 218 °C.

Turning to `O=C(O)CC(F)(F)F` [3,3,3-trifluoropropionic acid], the melting point was 9 °C.

In the case of `CSc1cnccn1` [2-(methylthio)pyrazine], the melting point was 44 °C.

For `CCCCCCCCCCS` [1-decanethiol], the melting point is -26 °C.

In the case of `CC12CCC(=O)CC1CCC1C2CCC2(C)C(=O)CCC12O` (centres undefined) [14-hydroxyandrostane-3,17-dione], the melting point amounted to 199 °C.

For the molecule `Oc1cccc(C2CNCCN2)c1` (centres undefined) [3-(2-piperazinyl)phenol], the melting point was determined as 184 °C.

With `O=[N+]([O-])c1ccccc1C#Cc1ccccn1` [2-[(2-nitrophenyl)ethynyl]pyridine], the melting point came out at 55 °C.

Molecule `COc1ccccc1-c1ccccc1` [2-methoxybiphenyl] displayed a melting point of 30 °C.

In turn, `Nc1cccc2c(N)cccc12` [1,5-Naphthalenediamine] came in with a melting point of 158 °C.

In the case of `CCCCCCCCCC(=O)O` [decanoic acid], the melting point was determined as 31 °C.

`Ic1ccc(-c2ccccc2)cc1` [4-iodobiphenyl] returned a melting point of 114 °C.

As to `[C-]#[O+]` [Carbon monooxide], the melting point is -205 °C.

`O=C(O)CSc1nnc(S)s1` [(5-mercapto-1,3,4-thiadiazol-2-ylthio)acetic acid] had a melting point of 167 °C.

In turn, `CCCCCCOC(C)=O` [hexyl_acetate] had a melting point of -80 °C.

Turning to `OCC(O)COc1ccccc1` (centres undefined) [3-phenoxy-1,2-propanediol], the melting point is 58 °C.

For the molecule `CP(C)CCP(C)C` [1,2-bis(dimethylphosphino)ethane], the melting point came out at 180 °C.

Take `c1ccc2c(c1)Cc1ccccc1-2` [fluorene]: the melting point was 116 °C and 115 °C.

In turn, `OB(O)c1ccccc1OCc1ccccc1` [2-benzyloxybenzeneboronic acid] came in with a melting point of 98 °C.

`O=C(CO)c1ccccc1` [2-hydroxyacetophenone] displayed a melting point of 6 °C.

Consider `C=Cc1ccccc1B(O)O` [2-vinylbenzeneboronic acid], for which the melting point was found to be 106 °C.

Regarding `CCCCCCCCCCCCCCCCI` [1-Iodohexadecane], the melting point worked out at 22 °C.

`O=C(O)c1ccc(C(F)(F)F)nc1Cl` [2-chloro-6-(trifluoromethyl)nicotinic acid] displayed a melting point of 119 °C.

As to `C#CCCC(C)C` [5-methyl-1-hexyne], the melting point is -124 °C.

As to `Clc1ccc(-c2ccccc2Cl)cc1` [PCB-8], the melting point amounted to 44 °C.

Take `CCCCCCCCCCCC=O` [dodecanal]: the melting point was 12 °C.

`O=C(O)c1ccccc1Nc1cccc(C(F)(F)F)c1` [Flufenamic Acid]: the melting point is 125 °C.

Consider `C1CC[C@H]2CCCC[C@@H]2C1` [trans-decahydronaphthalene], for which the melting point is -32 °C.

With `COc1ccc(NC(=S)c2cc(C(C)(C)C)c(O)c(C(C)(C)C)c2)cc1`, the melting point was 129 °C.

`Cc1cc(C)c(N=C=S)c(C)c1` [2,4,6-trimethylphenyl isothiocyanate] had a melting point of 62 °C.

For the molecule `O=C(O)c1ccc([N+](=O)[O-])cc1` [4-nitrobenzoic acid], the melting point stood at 242 °C.

`CC(=O)[C@H]1C[C@@H](CC(=O)O)C1(C)C` [[(1S,3S)-3-Acetyl-2,2-dimethylcyclobutyl]acetic acid] yielded a melting point of 67.8 °C.

`CCCC(=O)OCC` [Ethyl butyrate] registered a melting point of -93 °C.

As for `COC(=O)c1ccc(OC)cc1` [methyl_4-methoxybenzoate], the melting point came out at 50 °C.

With `Nc1ccc(Cl)cc1N` [4-chloro-o-phenylenediamine], the melting point was 72 °C.

`CC(C)(C)/[N+]([O-])=C/c1ccccc1` [N-tert-butyl-alpha-phenylnitrone] yielded a melting point of 73 °C.

`CCOC(=O)c1ccc([N+](=O)[O-])o1` [ethyl 5-nitro-2-furoate] yielded a melting point of 100 °C.

On to `Cc1ccc(C)c(C)c1C` [1,2,3,4-tetramethylbenzene], for which the melting point is -6 °C.

`N#CCc1ccc(O)cc1` [4-hydroxybenzyl_cyanide] displayed a melting point of 71 °C.

For the molecule `O=C(O)/C=C/c1ccc(F)cc1` [4-fluorocinnamic acid], the melting point stood at 209 °C.

Turning to `CCOC(=O)CCC(C)C1CCC2C3C(O)C(Br)C4CC(OC(C)=O)CCC4(C)C3CC(OC(C)=O)C12C` (centres undefined) [ethyl 3,12-bis(acetyloxy)-6-bromo-7-hydroxycholan-24-oate], the melting point was determined as 166 °C.

With `O=[N+]([O-])c1ccccc1CCl` [2-nitrobenzyl chloride], the melting point was 49 °C.

On to `O=C(O)CCCCc1ccccc1` [5-phenylvaleric acid], for which the melting point amounted to 59 °C.

As for `O=C(O)/C(=C/c1ccccc1)c1ccccc1` [(2E)-2,3-Diphenylacrylic acid], the melting point was 173 °C.

With `c1ccc2cc3cc4ccccc4cc3cc2c1` [2,3-Benzanthracene, Naphthacene], the melting point was 341 °C.

In the case of `O=C1OC2(OC=C(c3ccccc3)C2=O)c2ccccc21` (centres undefined) [fluorescamine], the melting point worked out at 157 °C.

As for `O=C1OC(=O)c2c(Cl)c(Cl)c(Cl)c(Cl)c21` [tetrachlorophthalic anhydride], the melting point was determined as 256 °C.

In the case of `Cc1ccc(C)c(C(=O)O)c1` [2,5-dimethylbenzoic acid], the melting point is 134 °C.

`COc1cc(C=O)cc(OC)c1OC` [3,4,5-trimethoxybenzaldehyde] gave a melting point of 75 °C.

In turn, `CC[Si](CC)(CC)CC` [tetraethylsilane] displayed a melting point of -82 °C.

Consider `CCCCS` [Butane-1-thiol], for which the melting point is -116 °C.

Consider `CCOC(=O)c1[nH]c(C)c(C(C)=O)c1C` [3-acetyl-2,4-dimethyl-5-(ethoxycarbonyl)pyrrole], for which the melting point was 142 °C.

As for `CCCOC1CCC2C3CC=C4CC5(CCC4(C)C3CCC12C)OCCO5` (centres undefined), the melting point was 209 °C.

`CCCCCCCCC(C)O` (centres undefined) [2-decanol] came in with a melting point of -2 °C.

`Oc1c(Br)c(Br)c(Br)c(Br)c1Br` [Pentabromophenol]: the melting point was determined as 230 °C.

Take `Clc1ccc2[nH]ccc2c1` [5-chloroindole]: the melting point amounted to 71 °C.

`CCC1(c2ccccc2)NC(=O)N(C)C1=O` (centres undefined) [mephenytoin]: the melting point was 135 °C and 136 °C.

`CN(C)c1ccccc1` [N,N-dimethylaniline]: the melting point was determined as 2 °C.

`c1ccc2cc3cc4ccccc4cc3cc2c1` [Naphthacene] registered a melting point of 357 °C.

With `CCCCS(=O)CCCC` [di-n-butyl sulfoxide], the melting point came out at 33 °C.

The molecule `CCCCc1ccccc1` [N-Butylbenzene] yielded a melting point of -87.9 °C.

Molecule `C#CC1(O)CCC2C3CCC4C(C)(C)CCCC4(C)C3CCC21C` (centres undefined) [4,4-dimethylpregn-20-yn-17-ol] yielded a melting point of 157 °C.

With `CC(=O)C(C)C` [3-methyl-2-butanone], the melting point is -92 °C.

`CCCCCCCI` [1-iodoheptane] registered a melting point of -48 °C.

`O=C4\C=C3/[C@]([C@H]2CC[C@]1([C@@H](CC[C@@]1(O)C)[C@@H]2CC3)C)(C)CC4` [methyltestosterone] returned a melting point of 163 °C.
